The numbers were not newly measured in patent publication US20250352610A1, “NOVEL COMPOSITION” (Arecor Limited, priority 2022, published 2025), which cites them from elsewhere.

For this series the following is noted: excipients of VancoReady; black box warning.

Consider `CC(=O)N[C@H](C)C(=O)O` [N-acetyl-D-alanine], for which the “Fetal malformations in animal reproductive studies” value is reported as “cause fetal malformations”.
